In assay [1] the test system is LUC reporter gene under the control of the PPARα 5′-flanking and promoter region. Description: LUC reporter gene activity in transiently transfected COS-1 cells (pMT-hGR). The assay is classed as cell-based, Monkey. On the set-up: gene activation less than fluticasone propionate / luciferase activity/β-galactosidase (in percent (%) of Fluticasone propionate): concentration or dose not given beside the values. Particulars: for luciferase activity/β-galactosidase (in percent (%) of Fluticasone propionate): COS-1 cells, harvested after 72 h. On the procedure:
Monkey kidney COS-1 cells (ATCC CRL 1650) were grown in Dulbecco's modified Eagle's medium (Gibco BRL, Grand Island, N.Y.) as described elsewhere (9). Transient transfections of COS-1 cells were performed as described elsewhere (10). The cells were plated at a density of 2×10^5 cells/well. Each well received 5 μg test plasmid, 5 μg β-galactosidase control plasmid as an internal control and either 2 μg expression plasmid, pMT-hGR or pGL3-basic as carrier. Plasmid details: The mouse PPARα gene is described elsewhere (11). Vectors expressing the LUC reporter gene under the control of the PPARα5′-flanking and promoter region were constructed in the pGL3-LUC vector (Promega). The PPARα 5′-flanking sequence between −2800 bp and +100 bp was cloned into NheI digested pGL3-LUC to generate the PPAR (−2800/+100) LUC plasmid Each transfection was performed in triplicates. The cells were transfected 24 h after plating together with fresh medium containing ligand. After 72 h cells were harvested, cytosol extracts were prepared and LUC activities were measured according to the Promega protocol. Results were normalized against β-galactosidase activities measured by incubating 100 μl extract with 0.28 mg o-nitrophenyl-D-galactoside (ONPG) in 50 mM phosphate buffer pH 7.0, 10 mM KCl, 1 mM MgCl2 for 30 min at 30° C. and reading absorbance at 420 nm.
For orientation: Reporter assays use an easily measured gene product as a stand-in for the process of interest.

Assay [2] concerns GM-CSF release. Description: Inhibition of IL-1β-stimulated GM-CSF release in A549 TRE cells. The class given is cell-based. The settings on record: for IC50: IL-1β-stimulated, 24 hours exposure; for fold more potent inhibition of GM-CSF release compared to fluticasone propionate: versus fluticasone propionate. On the procedure:
IL-1β-stimulation causes an increase in granulocyte-macrophage colony-stimulating factor (GM-CSF) release after 24 hours in A549 TRE (AP-1 regulation) cells. Inhibition of the GM-CSF release is measured after 24 hours exposure to a test compound.

Assay [3] relates to U937 cells. Put plainly: CellTiter 96 Non-Radioactive cell proliferation (MTS) assay, 48 h. The class given is cell-based, human. Particulars: for IC50: read-out: U937 cells, IC50 μM ± SD. Here is the method: (§1) The U937 and THP-1 cell lines were seeded, 20 000 cells per well, in 96-well-plates. 50 μl cell culture medium was added to each well. At the same time test compounds were added in 5 different concentrations and incubated for 48 hours. The CellTiter 96® Non-Radioactive cell proliferation assay (Promega) was used to study the cytotoxicity of test compounds in these cells. This assay is a colorimetric method for determining the number of viable cells in proliferation or chemosensitivity assays. It is composed of solutions of a novel tetrazolium compound (3-(4,5-dimethylthiazol-2-yl)-5-(3-carboxymethoxyphenyl)-2-(4-sulfophenyl)-2H-tetrazolium, inner salt; MTS) and an electron coupling reagent (phenazine methosulfate; PMS). MTS is bioreduced by cells into a formazan product that is soluble in tissue culture medium. The absorbance of the formazan at 490 nm can be measured directly from 96 well assay plates without additional processing. The quantity of formazan product as measured by the amount of 490 nm absorbance is directly proportional to the number of living cells in culture (IC50 values). The test compounds were fluticasone propionate and fluticasone elaidic acid derivative.

For assay [4], the system named is THP-1 cells. The assay is described as above. The assay is classed as cell-based, human. The settings on record: for IC50: THP1 cells, 48 hours incubation, read-out: THP1 cells, IC50 μM ± SD. Here is the method: as §1
Assay [5] concerns GRE-luciferase. Put plainly: Induction of GRE-luciferase activity in stably transfected A549 GRE-luciferase cells. The assay is classed as cell-based.
The mark [6] stands for this setting: listed as fluticasone elaidic acid ester derivative.

Read-outs that look alike come from different tables or passages of the source.

As for “6α,9α-Difluoro-16α-elaidoyloxy-11β-hydroxy-16α-methyl-3-oxoandrosta-1,4-diene-17β-carboxylic acid”, the “luciferase activity/β-galactosidase (in percent (%) of Fluticasone propionate)” value in assay [1] and in assay [1] (listed as flumethasone elaidic acid ester derivative) was 2% throughout.

One may read the IC50 as the concentration at which inhibition is half-maximal. As to `CCCCCCCCC=CCCCCCCCC(=O)OC1(C(=O)SCF)C(C)CC2C3CC(F)C4=CC(=O)C=CC4(C)C3(F)C(O)CC21C` (centres unmarked) [Fluticasone elaidic acid derivative], the half-maximal inhibitory concentration (IC50) in assay [2] amounted to 0.014 nM; in assay [3] (48 hours incubation) it was 1 µM; in assay [4] it was 10 µM. Moreover, the “fold more potent inhibition of GM-CSF release compared to fluticasone propionate” value in assay [2] is 22 fold; in assay [2] (listed as flucticasone elaidic acid ester derivative), “more than 20 fold”; in assay [2] (setting [6]), 22 fold. Further, in assay [5], the “effect on GRE-luciferase activity” value is “lack of effect”. Further, the “luciferase activity/β-galactosidase (in percent (%) of Fluticasone propionate)” value in assay [1] (listed as Fluticasone elaidic acid ester derivative) and in assay [1] (setting [6]) was 15% each time. The “gene activation less than fluticasone propionate” value in assay [1] (activation as a measure for side effects) amounted to 85%. In addition, in assay [1] (versus fluticasone propionate), the “fold decrease in side effects (activation of GRE elements)” value came to 7 fold.

For orientation: EC50 means the concentration needed to bring the measured effect to its halfway point. Take `CCC(=O)O[C@]1(C(=O)SCF)[C@H](C)C[C@H]2[C@@H]3C[C@H](F)C4=CC(=O)C=C[C@]4(C)[C@@]3(F)[C@@H](O)C[C@@]21C` [Fluticasone propionate, reference compound]: the IC50 is 0.31 nM in assay [2] (Homo sapiens); above 100 µM in assay [3] (Homo sapiens, U-937, 48 hours incubation); above 100 µM in assay [4] (Homo sapiens, THP-1). Besides, in assay [3] (up to 100 μM), the “activity in U937 cells (resistance)” value is recorded as “no activity seen up to 100 μM”. Besides, the “activity in THP1 cells (resistance)” value in assay [4] (up to 100 μM) was “no activity seen up to 100 μM”. In addition, the EC50 in assay [5] (Homo sapiens, read-out: EC50 of induction of GRE-luciferase reporter activity) was 0.51 nM. For the same compound, the “luciferase activity/β-galactosidase (in percent (%) of Fluticasone propionate)” value in assay [1] turned out to be 100%.

(Values after patent publication US9428540B2, “Fatty acid esters of glucocorticoids as anti-inflammatory and anti-cancer agents” (priority 2007, dated 2016).)
